Measured values taken from patent US5352703A, “Antitussive and mucus regulating agent, a process for the preparation thereof and pharmaceutical compositions containing it” (priority 1990, dated 1994).
Entries after “also recorded” stand apart in the source; their conditions may differ.

Key:
Format in all cases: in vivo
[1] = test system: Cough induced by mechanical stimulation; test: Cough induced by mechanical stimulation in dog; settings: for antitussive activity in words: mechanical stimulation, p.o., Ambroxol at twice the YS 912 dose
From the text: Cough induced by mechanical stimulation in dog.
24 Page 523, was used, comparing YS 912 with Ambroxol, Fominoben and Codeine phosphate.

NH3 induced cough = NH3 induced cough in Guinea pig; settings: for antitussive activity in words: NH3 cough, p.o., Ambroxol at twice the YS 912 dose
From the text: NH3 induced cough in Guinea pig.
23-page 219, 1965 with the changes reported by S. Malandrino et al. (Arzneim. Forsch. Drug. Res, 38, 1141, 1988) was used, comparing YS 912, Ambroxol and two standard control drugs: Fominoben and Codeine phosphate.

[2] = test system: Citric acid induced cough; test: Citric acid induced cough in Guinea pig; settings: for Cough strokes after treatment: mean ± S.E.; for Cough strokes after treatment / % inhibition vs. basal (cough strokes): n = 10; for ED50: Cavia porcellus, ip., citric acid cough, read-out: DE50 (effective dose 50, ED50)
From the text: 1. Citric acid induced cough in Guinea pig. The procedure described by R.A. Turner in "Screening methods in pharmacology-Antitussive agents" -Academic Press. New York-chapt. 23-page 219, 1965, with the changes reported by S. Malandrino et al. (Arzneim. Forsch. Drug. REs, 38, 1141, 1988), was used, comparing YS 912 with Ambroxol.

bronchial fluid = test: Bronchosecretolytic activity (fluorescein amount in bronchial fluid); settings: for Fluorescein amount in bronchial fluid: means of 12 animals, controls 0.26 ± 0.03; for ED50: po, bronchosecretolytic activity, read-out: DE50 (calculated effective dose 50)
From the text: The procedure described by H. […] Graziani and P. Cazzulani-(I1 Farmaco Ed. Pr. 36, 167; 1981) was used, comparing YS 912 with Ambroxol at the same weight doses.

[3] = Acute pharmacokinetic study in the rat, single administration at equimolecular doses
Experimental: A study was carried out on the rat, by comparing the kinetic profiles of YS 912 and Ambroxol, after single administration at equimolecular doses.

[4] = "In steady" pharmacokinetic study in the rat, equimolecular doses during 6 days; settings: extrapolated to human from rat
[5] = single administration at equimolecular doses

| SMILES | antitussive activity in words [1] | antitussive activity in words (NH3 induced cough) | Cough strokes after treatment ([2]; 12.5 mg/kg ip.) [cough strokes] | % inhibition vs. basal (cough strokes) ([2]; 12.5 mg/kg ip.) [%] | Cough strokes after treatment ([2]; 25 mg/kg ip.) [cough strokes] | % inhibition vs. basal (cough strokes) ([2]; 25 mg/kg ip.) [%] | Cough strokes after treatment ([2]; 50 mg/kg ip.) [cough strokes] | % inhibition vs. basal (cough strokes) ([2]; 50 mg/kg ip.) [%] | ED50 [2] [mg/kg] | % v.s. controls (fluorescein amount) (bronchial fluid; 12.5 mg/kg p.o.) [%] | Fluorescein amount in bronchial fluid (bronchial fluid; 12.5 mg/kg p.o.) | % v.s. controls (fluorescein amount) (bronchial fluid; 25.0 mg/kg p.o.) [%] | Fluorescein amount in bronchial fluid (bronchial fluid; 25.0 mg/kg p.o.) | % v.s. controls (fluorescein amount) (bronchial fluid; 50.0 mg/kg p.o.) [%] | Fluorescein amount in bronchial fluid (bronchial fluid; 50.0 mg/kg p.o.) | ED50 (bronchial fluid) [mg/kg] | % inhibition vs. controls ([1]; 50 mg/kg p.o.) [%] | % inhibition vs. controls (NH3 induced cough; 50 mg/kg p.o.) [%] | also measured |
| --- | --- | --- | --- | --- | --- | --- | --- | --- | --- | --- | --- | --- | --- | --- | --- | --- | --- | --- | --- |
| Nc1c(Br)cc(Br)cc1CNC1CCC(O)CC1 (stereo not shown) [Ambroxol, 2-Amino-3,5-dibromo-N-(4-hydroxycyclohexyl)benzylamine, reference compound] | substantially no effectiveness | poorly effective, lacking any statistical significance | 7.40 ± 1.32 | 19.57 | 6.20 ± 0.61 | 35.42 | 4.80 ± 1.02 | 46.07 | 57.2 | 23.07 | 0.32 ± 0.03 | 26.92 | 0.33 ± 0.02 | 42.30 | 0.37 ± 0.03 | 95.2 |  |  | % inhibition vs. controls ([1]; 100 mg/kg p.o.): 13.5%; % inhibition vs. controls (NH3 induced cough; 100 mg/kg p.o.): 34.2%; last time at which it can be dosed in plasma ([3]; in vivo): 12 h; time of plasmatic concentration peak ([3]; in vivo): second |
| COc1ccc2c3c1O[C@H]1[C@@H](O)C=C[C@H]4[C@@H](C2)N(C)CC[C@@]341 [Codeina fosfato] |  |  |  |  |  |  |  |  |  |  |  |  |  |  |  |  |  |  | % inhibition vs. controls ([1]; 5 mg/kg p.o.): 63.1%; % inhibition vs. controls (NH3 induced cough; 5 mg/kg p.o.): 56.1% |
| CN(CC(=O)N1CCOCC1)Cc1c(Cl)cccc1NC(=O)c1ccccc1 [Fominoben] |  |  |  |  |  |  |  |  |  |  |  |  |  |  |  |  | 59.0 | 63.4 |  |
| O=C(Nc1c(Br)cc(Br)cc1CNC1CCC(O)CC1)c1ccccc1 (stereo not shown) [YS 912, 2-benzoylamino-3,5-dibromo-N-(4-hydroxycyclohexyl)benzylamine] | comparable to that of the two control compounds | high activity | 2.90 ± 0.60 | 62.34 | 2.30 ± 0.54 | 75.00 | 2.00 ± 0.47 | 78.95 | 4.81 | 19.23 | 0.31 ± 0.03 | 30.76 | 0.34 ± 0.04 | 46.15 | 0.38 ± 0.04 | 60 | 54.0 | 61.0 | antitussive activity in words ([2]; 12.5, 25, 50 mg/kg ip., compared with Ambroxol): remarkable antitussive activity; also recorded: higher than that of Ambroxol; potency by ED50 relative to Ambroxol ([2]; ratio to Ambroxol): 14 times; plasmatic concentrations in human clinic, extrapolated, two daily YS 912 vs three daily Ambroxol administrations [4]: two daily administrations of YS 912 allow to achieve plasmatic concentrations (and therefore therapeutical effectiveness) which can be compared with those obtained after three daily administrations of Ambroxol; bronchosecretolytic effectiveness in words (bronchial fluid; p.o.): more favourable; Tmax ([3]; plasma, single administration, read-out: time of plasmatic concentration peak (converted)): 30 min; adsorption (absorption) ([3]; single administration): fast and high; main metabolite ([3]; single administration): the main metabolite being Ambroxol; AUC compared with Ambroxol [3, 5]: higher value being evidenced also in the case of the AUC; plasmatic half-life, increase over that of Ambroxol [3, 5]: 30%; metabolism: kinetic ([3]; single administration, after the 6th hour): slower kinetic |
